Reference: patent US11008346B2, “Beta-lactamase inhibitors” (priority 2014, dated 2021)
Where two headings read alike, the source gives them in different places.

Columns and labels:
[1] = tested on: E. coli ESBL4 expressing CTX-M-15; assay: broth microdilution MIC, E. coli CTX-M-15; format: cell-based; conditions: Fixed CAZ (ceftazidime) 4 μg/mL
Procedure, shortened: (§1)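 The inhibitor is titrated in twofold steps (final 32 to 0.25 μg/mL) alongside a static 4 μg/mL beta-lactam in CAMHB, with CLSI inoculation. After 16-20 hours at 37° C, growth inhibition is scored by eye.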

[2] = tested on: K. pneumoniae 156319 expressing KPC-3; assay: broth microdilution MIC, K. pneumoniae KPC-3; format: cell-based; conditions: Fixed Mero (meropenem) 4 μg/mL
Procedure, shortened: as §1

[3] = tested on: E. cloacae 144200 expressing Class C P99 AmpC; assay: broth microdilution MIC, E. cloacae P99; format: cell-based; conditions: Fixed CAZ (ceftazidime) 4 μg/mL
Procedure, shortened: as §1

SHV-5 β-lactamase = molecular target: T1, SHV-5 β-lactamase (Klebsiella pneumoniae, UniProt P0A3M1); assay: β-lactamase enzyme inhibition, SHV-5; format: biochemical
T1 construct: made in house; host or cells: E. coli BL21(DE3)
Procedure, shortened: (§2)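 Absorbance-based kinetic read over 10 min after a 15 min, 37° C enzyme–inhibitor preincubation. Substrates differed by target: nitrocefin at 100 μM final (OXA-1, p99 AmpC; 486 nm), imipenem (KPC-2; 300 nm), cefotaxime (SHV-5; 260 nm). Percent inhibition per concentration gave the IC50.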

[4] = tested on: P. aeruginosa Ps296 expressing VIM-2; assay: broth microdilution MIC, P. aeruginosa VIM-2; format: cell-based; conditions: Fixed Mero (meropenem) 4 μg/mL
Procedure, shortened: as §1

[5] = tested on: S. aureus MSSA-7 producing penicillinase PC-1; assay: broth microdilution MIC, S. aureus PC-1; format: cell-based; conditions: Fixed Pip (piperacillin) 4 μg/mL
Procedure, shortened: as §1

[6] = tested on: K. pneumoniae A-1797 expressing KPC-2 and VIM-4; assay: broth microdilution MIC, K. pneumoniae KPC-2 and VIM-4; format: cell-based; conditions: Fixed Mero (meropenem) 4 μg/mL
Procedure, shortened: as §1

OXA-1 β-lactamase = molecular target: T2, OXA-1 β-lactamase (Escherichia coli, UniProt P13661); assay: β-lactamase enzyme inhibition, OXA-1; format: biochemical; conditions: Nitrocefin 100 μM, 486 nm; 15 min at 37° C. preincubation; read-out: IC50 OXA-1 (Class D)
T2 construct: made in house; host or cells: E. coli BL21(DE3)
Procedure, shortened: as §2

[7] = molecular target: T3, VIM-2 metallo β-lactamase (Pseudomonas aeruginosa, UniProt Q9K2N0); assay: β-lactamase enzyme inhibition, VIM-2; format: biochemical; conditions: Nitrocefin 100 μM, 486 nm; 15 min at 37° C. preincubation; read-out: IC50 VIM-2 (Class B)
T3 construct: made in house; host or cells: E. coli BL21(DE3)
Procedure, shortened: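 Inhibitor and enzyme sat together 15 min at 37° C before 100 μM nitrocefin (final) was added and 486 nm absorbance read for 10 min. IC50 is the concentration halving initial hydrolysis rate relative to uninhibited wells. Protein came from Q sepharose anion exchange at pH 7.5, repeated to >90% purity.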

p99 AmpC β-lactamase = molecular target: T4, p99 AmpC β-lactamase (Enterobacter cloacae, UniProt P05364); assay: β-lactamase enzyme inhibition, p99 AmpC; format: biochemical
T4 construct: made in house; host or cells: E. coli BL21(DE3)
Procedure, shortened: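 Inhibitor and enzyme were incubated 15 min at 37°C first. The enzyme was recombinant p99 AmpC, untagged, from E. coli BL21(DE3), purified by ion-exchange and size-exclusion chromatography.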

KPC-2 β-lactamase = molecular target: T5, KPC-2 β-lactamase (Klebsiella pneumoniae, UniProt Q9F663); assay: β-lactamase enzyme inhibition, KPC-2; format: biochemical
T5 construct: made in house; host or cells: E. coli BL21(DE3)
Procedure, shortened: as §2

[8] = imipenem substrate, 300 nm, 15 min at 37° C. preincubation, read-out: IC50 KPC-2 (Class A)

T5 sequence (Q9F663 25-293, looked up): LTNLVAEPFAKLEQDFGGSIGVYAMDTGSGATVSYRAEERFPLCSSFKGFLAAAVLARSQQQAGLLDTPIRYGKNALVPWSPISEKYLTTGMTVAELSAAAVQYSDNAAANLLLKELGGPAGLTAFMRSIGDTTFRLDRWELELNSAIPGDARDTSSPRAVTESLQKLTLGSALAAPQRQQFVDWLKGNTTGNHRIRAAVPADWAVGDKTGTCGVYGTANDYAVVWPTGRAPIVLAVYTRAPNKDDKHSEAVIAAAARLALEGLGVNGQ
T2 sequence (P13661 26-276): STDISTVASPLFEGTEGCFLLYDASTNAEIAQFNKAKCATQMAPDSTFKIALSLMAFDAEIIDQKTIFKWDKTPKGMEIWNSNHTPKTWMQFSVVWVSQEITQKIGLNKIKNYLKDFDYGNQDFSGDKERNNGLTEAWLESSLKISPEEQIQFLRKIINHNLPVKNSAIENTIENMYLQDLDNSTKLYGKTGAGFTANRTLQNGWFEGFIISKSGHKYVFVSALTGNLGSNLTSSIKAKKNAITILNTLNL
T1 sequence (P0A3M1 22-286): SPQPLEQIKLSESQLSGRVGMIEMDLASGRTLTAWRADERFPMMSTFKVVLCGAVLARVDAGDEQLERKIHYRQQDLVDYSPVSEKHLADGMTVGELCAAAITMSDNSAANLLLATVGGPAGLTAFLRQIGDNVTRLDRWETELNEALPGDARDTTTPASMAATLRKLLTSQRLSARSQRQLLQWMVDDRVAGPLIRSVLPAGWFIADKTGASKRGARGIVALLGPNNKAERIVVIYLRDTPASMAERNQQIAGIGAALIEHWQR
T4 sequence (P05364 21-381): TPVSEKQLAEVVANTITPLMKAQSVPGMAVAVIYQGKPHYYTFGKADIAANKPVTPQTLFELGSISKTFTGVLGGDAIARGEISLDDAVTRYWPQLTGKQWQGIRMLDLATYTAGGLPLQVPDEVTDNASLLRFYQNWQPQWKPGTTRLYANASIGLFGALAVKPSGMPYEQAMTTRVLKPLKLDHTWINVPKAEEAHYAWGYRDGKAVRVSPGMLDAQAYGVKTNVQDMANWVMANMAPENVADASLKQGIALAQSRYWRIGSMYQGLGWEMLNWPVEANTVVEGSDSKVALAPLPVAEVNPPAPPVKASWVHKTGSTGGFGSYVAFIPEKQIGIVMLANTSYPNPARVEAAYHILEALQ

| SMILES | MIC of exemplary compounds in presence of fixed β-lactams, E. coli ESBL4 CTX-M-15 [1] | MIC of exemplary compounds in presence of fixed β-lactams, K.P. 156319 KPC-3 [2] | MIC of exemplary compounds in presence of fixed β-lactams, E. cl. 144200 p99 AmpC [3] | IC50 (SHV-5 β-lactamase) [nM] | MIC of exemplary compounds in presence of fixed β-lactams, P. aerug. Ps296 VIM-2 [4] | MIC of exemplary compounds in presence of fixed β-lactams, S. aureus MSSA-7 PC-1 [5] | MIC of exemplary compounds in presence of fixed β-lactams, K.P. A-1797 KPC-2 VIM-4 [6] | IC50 (OXA-1 β-lactamase) [nM] | IC50 [7] [nM] | IC50 (p99 AmpC β-lactamase) [nM] | IC50 (KPC-2 β-lactamase) [nM] | IC50 (KPC-2 β-lactamase; [8]) [nM] |
| --- | --- | --- | --- | --- | --- | --- | --- | --- | --- | --- | --- | --- |
| CS(=O)(=O)NCCC(=O)N[C@H]1Cc2cccc(C(=O)O)c2OB1O [Example 22, (R)-2-Hydroxy-3-(3-methanesulfonylamino-propionylamino)-3,4-dihydro-2H-benzo[e][1,2]oxaborinine-8-carboxylic acid] | C (C represents the MIC in the presence of ≤4 g/mL of a β-lactamase inhibitor) | C (C represents the MIC in the presence of ≤4 g/mL of a β-lactamase inhibitor) | C (C represents the MIC in the presence of ≤4 g/mL of a β-lactamase inhibitor) | < 100 | B (B represents the MIC in the presence of between 8 and 32 g/mL of a β-lactamase inhibitor) | C (C represents the MIC in the presence of ≤4 g/mL of a β-lactamase inhibitor) | B (B represents the MIC in the presence of between 8 and 32 g/mL of a β-lactamase inhibitor) | < 100 | 1000 to 10000 | < 100 | < 100 | – |
| NC(=O)NCCC(=O)N[C@H]1Cc2cccc(C(=O)O)c2OB1O [Example 23, (R)-2-Hydroxy-3-(3-ureido-propionylamino)-3,4-dihydro-2H-benzo[e][1,2]oxaborinine-8-carboxylic acid] | C (C represents the MIC in the presence of ≤4 g/mL of a β-lactamase inhibitor) | C (C represents the MIC in the presence of ≤4 g/mL of a β-lactamase inhibitor) | C (C represents the MIC in the presence of ≤4 g/mL of a β-lactamase inhibitor) | 100 to 1000 | C (C represents the MIC in the presence of ≤4 g/mL of a β-lactamase inhibitor) | C (C represents the MIC in the presence of ≤4 g/mL of a β-lactamase inhibitor) | B (B represents the MIC in the presence of between 8 and 32 g/mL of a β-lactamase inhibitor) | < 100 | 1000 to 10000 | < 100 | – | < 100 |
| CC(C)(Cl)CCC(=O)N[C@H]1Cc2cccc(C(=O)O)c2OB1O [Example 24, (R)-3-(4-chloro-4-methylpentanamido)-2-hydroxy-3,4-dihydro-2H-benzo[e][1,2]oxaborinine-8-carboxylicacid] | C (C represents the MIC in the presence of ≤4 g/mL of a β-lactamase inhibitor) | C (C represents the MIC in the presence of ≤4 g/mL of a β-lactamase inhibitor) | C (C represents the MIC in the presence of ≤4 g/mL of a β-lactamase inhibitor) | < 100 | B (B represents the MIC in the presence of between 8 and 32 g/mL of a β-lactamase inhibitor) | C (C represents the MIC in the presence of ≤4 g/mL of a β-lactamase inhibitor) | B (B represents the MIC in the presence of between 8 and 32 g/mL of a β-lactamase inhibitor) | < 100 | 1000 to 10000 | < 100 | – | < 100 |
| CCOCC(=O)N[C@H]1Cc2cccc(C(=O)O)c2OB1O [Example 25, (R)-3-(2-ethoxyacetamido)-2-hydroxy-3,4-dihydro-2H-benzo[e][1,2]oxaborinine-8-carboxylic acid] | C (C represents the MIC in the presence of ≤4 g/mL of a β-lactamase inhibitor) | C (C represents the MIC in the presence of ≤4 g/mL of a β-lactamase inhibitor) | C (C represents the MIC in the presence of ≤4 g/mL of a β-lactamase inhibitor) | < 100 | C (C represents the MIC in the presence of ≤4 g/mL of a β-lactamase inhibitor) | C (C represents the MIC in the presence of ≤4 g/mL of a β-lactamase inhibitor) | B (B represents the MIC in the presence of between 8 and 32 g/mL of a β-lactamase inhibitor) | < 100 | 1000 to 10000 | < 100 | – | < 100 |
| COCCC(=O)N[C@H]1Cc2cccc(C(=O)O)c2OB1O [Example 26, (R)-2-Hydroxy-3-(3-methoxy-propionylamino)-3,4-dihydro-2H-benzo[e][1,2]oxaborinine-8-carboxylic acid] | C (C represents the MIC in the presence of ≤4 g/mL of a β-lactamase inhibitor) | C (C represents the MIC in the presence of ≤4 g/mL of a β-lactamase inhibitor) | C (C represents the MIC in the presence of ≤4 g/mL of a β-lactamase inhibitor) | 100 to 1000 | B (B represents the MIC in the presence of between 8 and 32 g/mL of a β-lactamase inhibitor) | C (C represents the MIC in the presence of ≤4 g/mL of a β-lactamase inhibitor) | B (B represents the MIC in the presence of between 8 and 32 g/mL of a β-lactamase inhibitor) | < 100 | 1000 to 10000 | < 100 | – | < 100 |
| COCCOCC(=O)N[C@H]1Cc2cccc(C(=O)O)c2OB1O [Example 27, (R)-2-Hydroxy-3-[2-(2-methoxy-ethoxy)-acetylamino]-3,4-dihydro-2H-benzo[e][1,2]oxaborinine-8-carboxylic acid] | C (C represents the MIC in the presence of ≤4 g/mL of a β-lactamase inhibitor) | C (C represents the MIC in the presence of ≤4 g/mL of a β-lactamase inhibitor) | C (C represents the MIC in the presence of ≤4 g/mL of a β-lactamase inhibitor) | < 100 | A (A represents an MIC of the fixed β-lactam antibiotic in the presence of >32 g/mL of a β-lactamase inhibitor) | C (C represents the MIC in the presence of ≤4 g/mL of a β-lactamase inhibitor) | B (B represents the MIC in the presence of between 8 and 32 g/mL of a β-lactamase inhibitor) | < 100 | 100 to 1000 | < 100 | – | < 100 |
